# Results as given in PMC5341752, “New bipyridine gold(III) dithiocarbamate-containing complexes exerted a potent anticancer activity against cisplatin-resistant cancer cells independent of p53 status” (Oncotarget, 2016).
# Legend:
# [1] = system: PC3 cells; assay: Growth inhibition, MTT assay, PC3 cells; type: cell-based, human; settings: 72 h exposure; for IC50: mean ± SEM
# Experimental: (§1) PC3 and MCF-7 cells (2.5 × 10^3), A2780, A2780cis (4.0 × 10^3), A2780CP-16 and lung cancer cells (H460, A549, H226, H838, H157, H1975, H2122, SKLU1 and H1299) were seeded in 96-well flat-bottomed microplates (100 μL) and incubated for 24 h (to allow cell adhesion) before drug testing. The medium was then removed and replaced with fresh medium containing the gold(III) complexes (compound 1–9) to be tested at increasing concentrations (from 0.01 to 100 μM) at 37°C for 72 h. Each treatment was performed in triplicate. Cell proliferation was assayed using the MTT assay. Alternatively, L-540 cells (2.0 × 10^5/mL) were seeded in 96-well plates and treated as previously described. After treatment, cell proliferation was evaluated by the MTS assay (Promega). IC50 (i.e., the half maximal inhibitory concentration representing the concentration of a substance required for 50% in vitro inhibition) IC75 and IC90 values (Supplementary Table S1) were calculated using the CalcuSyn software (Biosoft, Ferguson, MO, USA). Dependence of activity on p53 was assessed in A2780 cells following p53 knockdown by CRISPR [48].
# [2] = system: A2780 cells; assay: Growth inhibition, MTT assay, A2780 cells; type: cell-based, human; settings: 72 h exposure; for IC50: mean ± SEM
# Experimental: as §1
# [3] = system: L-540 cells; assay: Growth inhibition, MTS assay, L-540 cells; type: cell-based, human; settings: 72 h exposure; for IC50: mean ± SEM
# Experimental: as §1
# [4] = system: MCF-7 cells; assay: Growth inhibition, MTT assay, MCF-7 cells; type: cell-based, human; settings: for IC50: mean ± SEM
# Experimental: as §1
# [5] = system: A2780cis cells; assay: Growth inhibition, MTT assay, cisplatin-resistant A2780cis cells; type: cell-based, human; settings: for IC50: mean ± SEM; for Fold resistance A2780cis/A2780 ratio: ratio A2780cis IC50/A2780 IC50
# Experimental: as §1
# [6] = system: NSCLC cell lines (H460, A549, H226, H838, H157, H1975, H2122, SKLU1, H1299); assay: Cytotoxicity in a panel of NSCLC cell lines, MTT assay; type: cell-based; settings: all NSCLC cell lines
# Experimental: as §1
# [7] = system: 2780CP cells; design: method as in PMID 10643661; settings: 2780CP-16 versus A2780; cited from earlier work
# [8] = system: tumor cells; assay: Cell cycle progression; type: cell-based; settings: data not shown
# [9] = system: human Mesenchymal stromal cells (MSCs); assay: Proliferation of normal Mesenchymal stromal cells, MTT assay; type: cell-based; settings: 72 h
# Experimental: Bone Marrow (BM) derived human Mesenchymal Stromal Cells (MSCs) were from Lonza (Lonza, Verviers, Belgium). MSCs were maintained in MSGM bullet kit (Lonza) and experiments were performed in DMEM medium (Cambrex Bio Science, Milano, Italy) supplemented with 10% FCS. To evaluate effects of compound 1, MSCs (5.0 × 10^3) were seeded in 96-well flat-bottomed microplates (100 μL) and incubated for 24 h (to allow cell adhesion) before drug testing. The medium was then removed and replaced with fresh medium containing compound 1 to be tested at increasing concentrations (from 0.1 to 1 μM) at 37°C for 72 h. Each treatment was performed in triplicate. Cell proliferation was assayed using the MTT assay.
# [10] = system: A2780, A2780cis, MCF-7, PC3, L-540 cells; assay: Caspase 3 activation, FLICA reagent, flow cytometry; type: cell-based, human; settings: IC75, 0, 24 and 48 h
# Experimental: (§2) PC3 (2.5 × 10^4), MCF-7 (5.0 × 10^4), A2780 and A2780cis (5.0 × 10^4), and L-540 cells (2.0 × 10^5/mL) were incubated in six-well plates with compound 1 (IC75) (Figure 1) for 72 h. Annexin-V binding (Becton-Dickinson [BD] Pharmingen, San Jose, CA) together with propidium iodide (PI) staining was detected in tumor cells by flow cytometry, as described. Caspase 3 and 9 activation was evaluated using the fluorochrome inhibitors of caspases (FLICA) Caspa-TagTM caspase-3/7 (FAM-DEVD-FMK) and caspase 9 (FAM-LETD) (Chemicon International, Milan, Italy). Briefly, cells were treated with compound 1 (IC75), then harvested, washed and resuspended in warmed complete medium supplemented with FLICA for 1 h and then immediately analyzed by flow cytometry. DNA fragmentation was assessed using the Apo-Direct kit (Becton-Dickinson Pharmigen, CA, USA) according to manufacturer's instructions. […] Red fluorescence was immediately analyzed by flow cytometry. Viable cells were identified according to their forward and right-angle scattering, electronically gated and analyzed on a FACScan flow cytometer (BD), using CellQuest software (BD). […] After 72 h, ROS formation and viable cells number were evaluated by flow cytometry and trypan blue dye exclusion assay, respectively. […]
# [11] = system: tumor cells; assay: Mitochondrial ROS, MitoSox, flow cytometry; type: cell-based, human; settings: IC75, 72 h
# Experimental: as §2
# [12] = system: A2780, A2780cis, MCF-7, PC3, L-540 cells; assay: Apoptosis, Annexin V/PI double staining, flow cytometry; type: cell-based, human; settings: IC75, 72 h
# Experimental: as §2
# [13] = system: tumor cells; assay: Cytochrome-c release, flow cytometry; type: cell-based, human; settings: IC75, 24 h
# [14] = system: tumor cells; assay: Mitochondrial membrane permeabilization, CMXRos, flow cytometry; type: cell-based, human; settings: IC75, 24 h
# Experimental: as §2
# [15] = system: A2780, A2780cis, MCF-7, PC3, L-540 cells; assay: DNA fragmentation, Apo-Direct, flow cytometry; type: cell-based, human; settings: IC75, 72 h
# Experimental: as §2
# [16] = system: tumor cells; assay: Caspase 9 activation, FLICA reagent, flow cytometry; type: cell-based, human; settings: IC75, 24 h
# Experimental: as §2
# [17] = Stability by UV-Vis spectra in DMSO over 24 hours at 37°C; type: physicochemical; settings: DMSO solution
# Experimental: Electronic spectra were recorded on each complex freshly prepared in DMSO solution at room temperature. Then, their electronic spectra were monitored over 24 hours at 37°C. The resulting UV-Vis absorption spectra of compound 1, 2 and 3 are shown in Supplementary Figure S4A–S4C.
# [18] = system: A2780 CRISPR p53 KO cells; assay: MTT assay in A2780 clone with p53 knocked out by CRISPR/Cas9; type: cell-based, human; settings: mean ± SEM
# Experimental: as §1
# [19] = system: A2780 CRISPR Control cells (WT-p53); assay: MTT assay in A2780 clone transfected with CRISPR control plasmid; type: cell-based, human; settings: mean ± SEM
# Experimental: as §1
compound,measurement,setting,value
"Cc1cccc2[n+]1[Au-]1([S]C(N(C)C)=[S+]1)[n+]1c(C)cccc1-2.[Cl-].[Cl-] [Compound 7, [Au(6,6′-Me2BPY)(DMTC)]Cl2]",IC50,[1],770 ± 70 nM
same,IC50,[2],270 ± 20 nM
same,IC50,[3],3600 ± 320 nM
same,IC50,"[4]; 72 h exposure, MTT",350 ± 30 nM
same,IC50,"[5]; 72 h exposure, MTT",230 ± 20 nM
same,"fold greater potency than compounds 3, 6 and 9",[6],at least 10 fold
"Cc1cccc2[n+]1[Au-]1([S]C(N(Cc3ccccc3)Cc3ccccc3)=[S+]1)[n+]1c(C)cccc1-2.[Cl-].[Cl-] [Compound 9, [Au(6,6′-Me2BPY)(DBTC)]Cl2]",IC50,[1],11500 ± 1030 nM
same,IC50,[2],6700 ± 600 nM
same,IC50,[3],35800 ± 3220 nM
same,IC50,"[4]; 72 h exposure, MTT",31000 ± 2790 nM
same,IC50,"[5]; 72 h exposure, MTT",16000 ± 1440 nM
same,Fold resistance A2780cis/A2780 ratio,[5],2.39
cis-[Pt(NH3)2Cl2] [Cisplatin],fold cisplatin resistance of 2780CP cells,[7],20 fold
same,IC50,[1],3300 ± 300 nM
same,IC50,[2],1500 ± 100 nM
same,IC50,[3],2500 ± 100 nM
same,IC50,"[4]; 72 h exposure, MTT",22200 ± 200 nM
same,IC50,"[5]; 72 h exposure, MTT",10400 ± 900 nM
same,Fold resistance A2780cis/A2780 ratio,[5],6.93
same,Fold resistance A2780cis/A2780 ratio,[5]; listed as cisplatin,about 7
"CCN(CC)C1=[S+][Au-]2([S]1)[n+]1c(C)cccc1-c1cccc(C)[n+]12.Cl.Cl [Compound 8, [Au(6,6′-Me2BPY)(DETC)]Cl2]",IC50,[1],1600 ± 140 nM
same,IC50,[2],730 ± 60 nM
same,IC50,[3],6200 ± 560 nM
same,IC50,"[4]; 72 h exposure, MTT",470 ± 40 nM
same,IC50,"[5]; 72 h exposure, MTT",450 ± 30 nM
"CN(C)C1=[S+][Au-]2([S]1)[n+]1ccccc1-c1cccc[n+]12.[Cl-].[Cl-] [Compound 1, [Au(BPY)(DMTC)]Cl2]",cell cycle progression,[8],only slightly affected
same,IC50,[9],960 nM
same,caspase 3 activation,[10],induced a time-dependent activation of caspase 3
same,mitochondrial ROS levels,[11],increased mitochondrial ROS levels
same,apoptosis (Annexin-V/PI),[12],induced apoptosis in the cell lines tested
same,IC75 PC3,[1],730 ± 70 nM
same,IC90,[1],910 ± 110 nM
same,IC50,[1],420 ± 40 nM
same,IC75 A2780,[2],450 ± 40 nM
same,IC90,[2],600 ± 50 nM
same,IC50,[2],180 ± 20 nM
same,IC75 L-540,[3],3500 ± 320 nM
same,IC90,[3],4200 ± 390 nM
same,IC50,[3],2680 ± 240 nM
same,cytochrome-c release from the mitochondria,[13],cytochrome-c (Cyt-c) release
same,mitochondrial membrane permeabilization,[14],promoted mitochondrial membrane permeabilization
same,DNA fragmentation (Apo-Direct),[15],Apoptosis induction was confirmed by DNA fragmentation
same,IC75 MCF-7,"[4]; 72 h exposure, MTT",510 ± 50 nM
same,IC90,"[4]; 72 h exposure, MTT",740 ± 80 nM
same,IC50,"[4]; 72 h exposure, MTT",270 ± 20 nM
same,fold more active than cisplatin in inhibiting cell proliferation,[4]; MCF-7 cells,~80 fold
same,caspase 9 activation,[16],induced activation of caspase 9
same,stability by UV spectra,[17],confirm the stability under physiological temperature
same,IC75 A2780cis,"[5]; 72 h exposure, MTT",430 ± 40 nM
same,IC90,"[5]; 72 h exposure, MTT",560 ± 60 nM
same,IC50,"[5]; 72 h exposure, MTT",170 ± 10 nM
same,fold more active than cisplatin in inhibiting cell proliferation,[5]; A2780cis cells,about 60 fold
"CCN(CC)C1=[S+][Au-]2([S]1)[n+]1cc(C)ccc1-c1ccc(C)c[n+]12.Cl.Cl [Compound 5, [Au(5,5′-Me2BPY)(DETC)]Cl2]",IC50,[1],860 ± 80 nM
same,IC50,[2],590 ± 50 nM
same,IC50,[3],2900 ± 260 nM
same,IC50,"[4]; 72 h exposure, MTT",290 ± 30 nM
same,IC50,"[5]; 72 h exposure, MTT",230 ± 20 nM
"CCN(CC)C(=S)[S-].[Au+3].[Cl-].[Cl-].c1ccc(-c2ccccn2)nc1 [Compound 2, [Au(BPY)(DETC)]Cl2]",IC50,[1],700 ± 60 nM
same,IC50,[2],240 ± 20 nM
same,IC50,[3],2800 ± 250 nM
same,IC50,"[4]; 72 h exposure, MTT",270 ± 20 nM
same,stability by UV spectra,[17],confirm the stability under physiological temperature
same,IC50,"[5]; 72 h exposure, MTT",180 ± 10 nM
"Cc1ccc2[n+](c1)[Au-]1([S]C(N(Cc3ccccc3)Cc3ccccc3)=[S+]1)[n+]1cc(C)ccc1-2.[Cl-].[Cl-] [Compound 6, [Au(5,5′-Me2BPY)(DBTC)]Cl2]",IC50,[1],11600 ± 1040 nM
same,IC50,[2],6350 ± 60 nM
same,IC50,[3],6500 ± 60 nM
same,IC50,"[4]; 72 h exposure, MTT",18000 ± 1620 nM
same,IC50,"[5]; 72 h exposure, MTT",15700 ± 1410 nM
same,Fold resistance A2780cis/A2780 ratio,[5],2.47
"Cc1ccc2[n+](c1)[Au-]1([S]C(N(C)C)=[S+]1)[n+]1cc(C)ccc1-2.[Cl-].[Cl-] [Compound 4, [Au(5,5′-Me2BPY)(DMTC)]Cl2]",IC50,[1],590 ± 50 nM
same,IC50,[18],83 ± 3 nM
same,IC50,[2],280 ± 30 nM
same,IC50,[3],2700 ± 220 nM
same,IC50,[19],87 ± 3 nM
same,IC50,"[4]; 72 h exposure, MTT",280 ± 20 nM
same,IC50,"[5]; 72 h exposure, MTT",170 ± 10 nM
same,"fold greater potency than compounds 3, 6 and 9",[6],at least 10 fold
"S=C([S-])N(Cc1ccccc1)Cc1ccccc1.[Au+3].[Cl-].[Cl-].c1ccc(-c2ccccn2)nc1 [Compound 3, [Au(BPY)(DBTC)]Cl2]",IC50,[1],11200 ± 1000 nM
same,IC50,[18],1130 ± 390 nM
same,IC50,[2],4660 ± 130 nM
same,IC50,[3],12000 ± 1080 nM
same,IC50,[19],870 ± 110 nM
same,IC50,"[4]; 72 h exposure, MTT",23000 ± 2070 nM
same,stability by UV spectra,[17],confirm the stability under physiological temperature
same,IC50,"[5]; 72 h exposure, MTT",14300 ± 1120 nM
same,Fold resistance A2780cis/A2780 ratio,[5],3.07
